# Reference: patent US8673587B2, “Methods for identifying allosteric and other novel acyl-coenzyme A:cholesterol acyltransferase inhibitors” (Trustees of Dartmouth College, priority 2010, dated 2014)
# T1: histidine-tagged recombinant human ACAT1 (Homo sapiens, UniProt P35610, M1L)
# T1 construct: hACAT-1 cDNA (nucleotide residues 1397-3046, a total of 550 amino acids); made in house; partially purified on a nickel column
# T1 sequence (P35610 1-550 M1L): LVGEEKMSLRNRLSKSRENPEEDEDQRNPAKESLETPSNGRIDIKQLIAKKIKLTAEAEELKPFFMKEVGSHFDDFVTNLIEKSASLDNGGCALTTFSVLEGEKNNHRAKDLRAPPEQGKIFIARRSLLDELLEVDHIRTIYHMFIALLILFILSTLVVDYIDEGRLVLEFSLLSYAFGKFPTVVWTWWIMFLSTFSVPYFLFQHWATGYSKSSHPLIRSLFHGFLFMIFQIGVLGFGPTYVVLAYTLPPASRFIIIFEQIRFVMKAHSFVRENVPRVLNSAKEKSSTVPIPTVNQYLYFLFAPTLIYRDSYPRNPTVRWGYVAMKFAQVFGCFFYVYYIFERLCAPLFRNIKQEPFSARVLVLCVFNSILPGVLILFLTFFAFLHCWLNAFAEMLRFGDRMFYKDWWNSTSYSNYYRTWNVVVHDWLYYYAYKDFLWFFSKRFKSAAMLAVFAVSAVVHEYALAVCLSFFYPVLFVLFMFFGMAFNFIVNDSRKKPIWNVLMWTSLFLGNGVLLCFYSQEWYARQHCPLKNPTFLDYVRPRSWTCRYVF
# T2: ACAT1 (Homo sapiens, UniProt P35610, M1L)
# T2 construct: hACAT-1 cDNA (nucleotide residues 1397-3046, a total of 550 amino acids); made in house; partially purified on a nickel column
# T2 sequence (P35610 1-550 M1L): T1 sequence (P35610 1-550 M1L)
# T3: histidine-tagged recombinant human ACAT2 (Homo sapiens, UniProt O75908)
# T3 construct: made in house; partially purified on a nickel column
# T3 sequence (O75908 1-522): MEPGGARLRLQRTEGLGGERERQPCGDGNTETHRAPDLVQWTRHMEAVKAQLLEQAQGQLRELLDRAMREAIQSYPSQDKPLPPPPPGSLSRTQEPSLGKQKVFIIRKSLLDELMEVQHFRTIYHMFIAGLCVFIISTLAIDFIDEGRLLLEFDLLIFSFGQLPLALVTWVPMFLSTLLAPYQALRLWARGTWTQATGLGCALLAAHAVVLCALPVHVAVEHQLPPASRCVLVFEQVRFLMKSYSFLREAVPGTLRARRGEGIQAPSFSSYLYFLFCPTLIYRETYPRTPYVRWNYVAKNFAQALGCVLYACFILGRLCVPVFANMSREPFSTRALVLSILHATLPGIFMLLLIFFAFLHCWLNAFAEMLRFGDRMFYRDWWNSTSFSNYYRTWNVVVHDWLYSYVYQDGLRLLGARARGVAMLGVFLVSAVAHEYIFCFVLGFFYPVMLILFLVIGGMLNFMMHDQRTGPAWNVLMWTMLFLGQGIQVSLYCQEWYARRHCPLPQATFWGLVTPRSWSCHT
# T4: HisACAT1/FLAG (recombinant hACAT1) (Homo sapiens, UniProt P35610, M1L)
# T4 construct: hACAT1 contains 550 amino acids; made in house
# T4 sequence (P35610 1-550 M1L): T1 sequence (P35610 1-550 M1L)
# B1: ACAT1 (Homo sapiens; M1L) (protein)
# chain: T1 sequence (P35610 1-550 M1L)
# notes: hACAT-1 cDNA (nucleotide residues 1397-3046, a total of 550 amino acids); made in house; partially purified on a nickel column
# B2: HisACAT1/FLAG (recombinant hACAT1) (Homo sapiens; M1L) (protein)
# chain: T1 sequence (P35610 1-550 M1L)
# notes: hACAT1 contains 550 amino acids; made in house
# How the values were obtained:
# [1] = fed to animals; cited from earlier work
# [2] = system: amyloid precursor protein (APP); settings: animal models for AD; cited from earlier work
# [3] = target: T1, histidine-tagged recombinant human ACAT1; test: Steroid (pregnenolone/DHEA/E2) esterification in mixed micelles, ACAT1 as enzyme source; type: biochemical; settings: for ACAT1 substrate activity: 1 μM [3H]-steroid
# Text: (§1) The method of the present invention was developed in experiments using a mixed micelle enzyme assay system. […] A candidate ACAT inhibitor is an allosteric inhibitor if it is shown in the method of the present invention to inhibit cholesterol-dependent pregnenolone esterification but not to inhibit the basal pregnenolone esterification when cholesterol is absent in the assay mixture. […] In the assay system of the present invention, the source of ACAT was histidine-tagged recombinant human ACAT1 or human ACAT2, stably expressed in Chinese hamster ovary (CHO) cells that lack endogenous ACAT activity. However, one of skill in the art could employ other suitable mammalian cell systems as needed. The enzyme preparations used in the present method were partially purified through the use of nickel column chromatography, as described previously (Liu et al. 2005. Biochem. J. 391:389-397), using cells that stably expressing histidine-tagged recombinant human ACAT1 or human ACAT2 as the enzyme source.
# (§2) In developing the method of the present invention, a series of experiments was performed. Pregnenolone is one compound that contains the classical A, B, C, D steroid rings as well as a 3 beta-OH moiety. Based on its structure, pregnenolone may be an ACAT substrate. However, this possibility had not previously been tested experimentally. In the present invention, the activity of pregnenolone was tested by using radiolabeled pregnenolone ([^3H]-pregnenolone) in a mixed micelle enzyme assay mixture that contained the detergent taurocholate (or CHAPS), phosphatidylcholine, and oleyl-coenzyme A bound to bovine serum albumin (BSA). The enzyme used was histidine-tagged human ACAT1 or human ACAT2. The esterification of pregnenolone (i.e., formation of pregnenolone oleate) was monitored by performing lipid extraction to isolate [^3H]-pregnenolone oleate and [^3H]-pregnenolone. [^3H]-pregnenolone oleate was then separated from [^3H]-pregnenolone by using conventional thin-layer chromatography. Levels of [^3H]-pregnenolone oleate formed was measured using a scintillation counter. […] Thus, using ACAT1 as the enzyme source, the esterification of DHEA was examined (FIG. 1C).
# A pregnenolone substrate saturation curve was then constructed, with or without addition of cholesterol to the assay mixture, using ACAT1 as the enzyme source (FIG. 2A). […] Then, a DHEA substrate saturation curve was constructed, with cholesterol present.
# Further experiments were performed to examine the effect of adding various non-oxysterols, at a concentration of 0.32 mM, on pregnenolone esterification in vitro, with ACAT1 as the enzyme source.
# (§3) To assay the enzyme, the pregnenolone/detergent/PC micelles and the cholesterol/detergent/PC micelles were prepared individually as follows: the radiolabeled pregnenolone/PC mixture or the cholesterol/PC mixture was prepared as described previously (Shi et al. 1989. Biochim. Biophys. Acta 982:187-195) and lyophilized to remove residual organic solvents. After lyophilization, the detergent sodium taurocholate (or other detergent such as CHAPS) in Buffer A was added to reach a final concentration of 10 mg/ml. The mixture was purged with nitrogen, followed by sonication until this mixture was clear. The pregnenolone/PC micelles were mixed with the cholesterol/PC micelles such that the cholesterol concentration is at 0 mM or at 0.32 mM, and the radioactive pregnenolone concentration is at 1 μM (specific activity 20 Ci/mmol).
# ACAT1 = target: T2, ACAT1; test: Cholesterol esterification in vitro ([3H]-oleoyl-CoA/BSA labeled substrate), cholesterol substrate saturation curve; type: biochemical; settings: pregnenolone added at 5 μM
# Text: (§6) ACAT1 was the enzyme source. [^3H]-oleoyl-CoA/BSA was the labeled substrate.
# [4] = target: T3, histidine-tagged recombinant human ACAT2; test: Pregnenolone esterification in mixed micelles, ACAT2 as enzyme source; type: biochemical; settings: 1 μM [3H]-pregnenolone
# Text: as §1, §2, §3
# [5] = target: T4, HisACAT1/FLAG (recombinant hACAT1); test: Ligand binding by change in intrinsic (tryptophan) fluorescence of HisACAT1/FLAG
# Text: Fluorescence measurements were generated using an ISS PC1 photocounting fluorescence spectrophotometer (model 90095). This instrument has continuously reproducible slits ranging from 0.4 to 32 nm band-pass. The excitation slit width was set at 2 nm. The wavelength for excitation was set at 295 nm in order to minimize the contribution of tyrosine residues to the fluorescence. Purified HisACAT1/FLAG was concentrated using 30K AMICON centrifugal filters such that the final concentration of the protein was 100-200 ng/μL (1.5-3 μM). Purified protein was stored at −80° C. until used. Unless stated otherwise, the fluorescence measurements were performed at pH 7.8 with 50 mM potassium phosphate, 0.5M KCl, and 8.13 mM CHAPS. Sterol (cholesterol, epicholesterol, coprostanol, and epicoprostanol) was prepared as CHAPS/PC/sterol mixed micelles (with CHAPS at 8.13 mM, PC at 4 mM, and with varying concentrations of sterols as indicated) and stored at 20° C. in the dark until usage. The fatty acyl-CoAs were dissolved in 20 mM sodium acetate at pH 6.4 as a 2 mM stock and stored at −80° C. until used. Before the experiment started, all reagents were kept on ice in the dark. To begin the experiment, 50 μL of mixed micelles without or with sterols was added into a HELLMA microcuvette with 3 mm light path. Twenty-five microliters of ACAT1 protein (in 8.13 mM CHAPS and 0.5 M KCl) was then added and rapidly mixed. Fluorescence was monitored within 15 seconds of adding the enzyme. The sample compartment of the instrument was maintained at 20° C. The fluorescence emission spectrum was scanned in 2 minutes between 310 and 410 nm. The differences in fluorescence intensity at 10 intervals within 325-335 nm were averaged in order to calculate the ΔF value between the ligated protein vs that of the unligated protein.
# Binding studies were subsequently conducted by monitoring the effect of increasing concentrations of oleoyl-CoA on the intrinsic fluorescence of HisACAT1/FLAG. […] However, the maximal change in the peak of the spectrum was much smaller (5% with respect to the unliganded protein). […] The data was analyzed for a simple bimolecular dissociation equilibrium using the PRISM program.
# Binding experiments were subsequently performed by monitoring the effect of increasing concentrations of cholesterol, from 10 to 600 μM, on the intrinsic fluorescence of HisACAT1/FLAG. […] It was estimated that the cholesterol concentration that caused half-maximal spectral change was 35 μM. […] The changes in the intrinsic fluorescence of ACAT1 caused by cholesterol, epicholesterol, coprostanol, or epicoprostanol as the ligand were also compared.
# [6] = target: T4, HisACAT1/FLAG (recombinant hACAT1); test: Steady-state enzyme kinetics with fatty acyl-CoA as variable substrate, purified HisACAT1/FLAG; type: biochemical; settings: constant, saturating cholesterol in CHAPS/PC mixed micelles
# Procedure: (§4) To monitor enzyme activity during enzyme purification, the enzyme solubilized in the detergent CHAPS was assayed in preformed taurocholate/cholesterol/phosphatidylcholine (PC) mixed micelles as described previously (Chang, C. C. et al. 1998. J. Biol. Chem. 273:35132-35141), with a final concentration of taurocholate at 9.3 mM, PC at 11.2 mM, and cholesterol at 1.6 mM. The amount of mixed micelle solution was used to dilute the detergent presented in the enzyme preparation, so the final CHAPS/PC molar ratio was less than 0.4. The fatty acyl-CoA substrate saturation curves and cholesterol substrate saturation curves were performed under the same conditions as described previously (Chang, C. C. et al. 1998. supra).
# (§5) Prior to conducting binding experiments, steady-state enzyme kinetic experiments were conducted using purified HisACAT1/FLAG as the enzyme source and either oleoyl- (18:1) CoA or stearoyl- (18:0) CoA as the variable substrate, at a constant, saturating level of cholesterol in the CHAPS/PC mixed micelles.
# [7] = substrate: CC(C)CCC[C@@H](C)[C@H]1CC[C@H]2[C@@H]3CC=C4C[C@@H](O)CC[C@]4(C)[C@H]3CC[C@]12C; test: Cholesterol esterification in vitro ([3H]-oleoyl-CoA/BSA labeled substrate), cholesterol substrate saturation curve; type: biochemical, human; settings: other: ACAT1
# Text: as §6
# [8] = substrate: CCCCCCCC/C=C\CCCCCCCC(=O)SCCNC(=O)CCNC(=O)[C@H](O)C(C)(C)COP(=O)(O)OP(=O)(O)OC[C@H]1O[C@@H](n2cnc3c(N)ncnc32)[C@H](O)[C@@H]1OP(=O)(O)O; test: Steady-state enzyme kinetics with fatty acyl-CoA as variable substrate, purified HisACAT1/FLAG; type: biochemical, human; settings: other: constant, saturating cholesterol in CHAPS/PC mixed micelles
# Procedure: as §4, §5
# [9] = substrate: CCCCCCCCCCCCCCCCCC(=O)SCCNC(=O)CCNC(=O)[C@H](O)C(C)(C)COP(=O)(O)OP(=O)(O)OC[C@H]1O[C@@H](n2cnc3c(N)ncnc32)[C@H](O)[C@@H]1OP(=O)(O)O; test: as above; type: biochemical, human; settings: other: constant, saturating cholesterol in CHAPS/PC mixed micelles
# Procedure: as §4, §5
# [10] = presence of excess cholesterol (0.32 mM)
molecule,measurement,setting,value
CC(C)c1cc(C(C)C)c(CC(=O)NS(=O)(=O)Oc2c(C(C)C)cccc2C(C)C)c(C(C)C)c1 [CI1011],VLDL-triglyceride content,[1],reduces the VLDL-triglyceride content
same,mature/immature ratio of human APP,[2],decreased
CC(=O)[C@H]1CC[C@H]2[C@@H]3CC=C4C[C@@H](O)CC[C@]4(C)[C@H]3CC[C@]12C [pregnenolone],"estimated Km, fold lower than that of cholesterol","[3]; ACAT1, cholesterol present",600 fold
same,ACAT1 substrate activity,[3]; absence of cholesterol,very poor substrate
same,ACAT1 substrate activity,[3]; [10],much better substrate
same,Km,"[3]; with cholesterol present in vitro (0.32 mM), read-out: apparent Km as ACAT1 substrate",~1.2 µM
same,Km as ACAT1 substrate,[3]; without cholesterol present in vitro,too high to be measurable
same,inhibition of cholesterol esterification,ACAT1,10-15%
same,ACAT2 substrate activity,[4]; absence of cholesterol,very poor substrate
same,ACAT2 substrate activity,[4]; [10],much better substrate
CCCCCCCC/C=C\CCCCCCCC(=O)SCCNC(=O)CCNC(=O)[C@H](O)C(C)(C)COP(=O)(O)OP(=O)(O)OC[C@H]1O[C@@H](n2cnc3c(N)ncnc32)[C@H](O)[C@@H]1OP(=O)(O)O [oleoyl-CoA],maximal increase in fluorescence peak height with respect to unliganded ACAT1 protein,"[5]; excitation 295 nm, peak 330 nm",approximately 32%
same,Kd,"[5]; simple bimolecular dissociation equilibrium, PRISM, read-out: dissociation constant",1.9 µM
same,"Vmax, fold higher than for stearoyl-CoA",[6],2.4 fold
B1,Km,[7],300 µM
B2,Km,[8],1.3 µM
same,Km,[9],6.4 µM
